Laboratory results reported in paper PMC10139140, “Synthesis of Novel 2-(Cyclopentylamino)thiazol-4(5H)-one Derivatives with Potential Anticancer, Antioxidant, and 11β-HSD Inhibitory Activities” (International Journal of Molecular Sciences, 2023).

Key:
[1] = test system: human pancreatic carcinoma (PANC-1); assay: MTS metabolic activity assay, PANC-1 cells; type: cell-based; details: for viability at 10 µM / viability at 20 µM / viability at 50 µM / viability at 100 µM / viability at 200 µM / viability at 300 µM / viability at 500 µM: Homo sapiens, 72 h, read-out: Cell metabolic activity (MTS), % of untreated control; for viability at 10 µM: PANC-1, 10 µM; for viability at 20 µM: PANC-1, 20 µM; for viability at 50 µM: PANC-1, 50 µM; for viability at 100 µM: PANC-1, 100 µM; for viability at 200 µM: PANC-1, 200 µM; for viability at 300 µM: PANC-1, 300 µM; for viability at 500 µM: PANC-1, 500 µM
Procedure, shortened: (§1)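 Cells seeded at 5 × 10^3 cells/0.32 cm^2 (BJ at 2 × 10^3 cells/0.32 cm^2), left 24 h, then exposed to various compound concentrations for 72 h. MTS added for 3 h in the dark; absorbance read at 590 nm and 620 nm, expressed as % of untreated control (100%).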

[2] = test system: human colon carcinoma (Caco-2); assay: MTS metabolic activity assay, Caco-2 cells; type: cell-based; details: 72 h; for viability at 10 µM / viability at 20 µM / viability at 50 µM / viability at 100 µM / viability at 200 µM / viability at 300 µM / viability at 500 µM: Homo sapiens, read-out: Cell metabolic activity (MTS), % of untreated control; for viability at 10 µM: Caco-2, 10 µM; for viability at 20 µM: Caco-2, 20 µM; for viability at 50 µM: Caco-2, 50 µM; for viability at 100 µM: Caco-2, 100 µM; for viability at 200 µM: Caco-2, 200 µM; for viability at 300 µM: Caco-2, 300 µM; for viability at 500 µM: Caco-2, 500 µM
Procedure, shortened: as §1

[3] = test system: skin melanoma (SK-MEL-30); assay: MTS metabolic activity assay, SK-MEL-30 cells; type: cell-based; details: Homo sapiens, 72 h, read-out: Cell metabolic activity (MTS), % of untreated control; for viability at 10 µM: SK-MEL-30, 10 µM; for viability at 20 µM: SK-MEL-30, 20 µM; for viability at 50 µM: SK-MEL-30, 50 µM; for viability at 100 µM: SK-MEL-30, 100 µM; for viability at 200 µM: SK-MEL-30, 200 µM; for viability at 300 µM: SK-MEL-30, 300 µM; for viability at 500 µM: SK-MEL-30, 500 µM
Procedure, shortened: as §1

glioma (U-118 MG) = assay: MTS metabolic activity assay, U-118 MG cells; type: cell-based; details: 72 h; for viability at 10 µM / viability at 20 µM / viability at 50 µM / viability at 100 µM / viability at 200 µM / viability at 300 µM / viability at 500 µM: Homo sapiens, U-118-MG, U118-MG, read-out: Cell metabolic activity (MTS), % of untreated control
Procedure, shortened: as §1

11β-HSD1 = target: T1, 11β-HSD1 (Homo sapiens, UniProt P28845); assay: Inhibition of 11β-HSD1 (cortisone to cortisol, human liver microsomes, cortisol ELISA); type: biochemical
T1 construct: Human liver microsomes were used as a source of 11β-HSD1 enzyme; tissue XenoTech Lot No. 1410013; host or cells: pooled human liver microsomes, mixed gender
Procedure, shortened: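 Human liver microsomal conversion of cortisone to cortisol, incubated 2.5 h at 37 °C and stopped with 18β-glycyrrhetinic acid. Cortisol was quantified by ELISA against inhibitor-free controls.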

11β-HSD2 = target: T2, 11β-HSD2 (Homo sapiens, UniProt P80365); assay: Inhibition of 11β-HSD2 (cortisol to cortisone, human microsomes, cortisol ELISA); type: biochemical; details: 2.5 h, 37 °C
T2 construct: Human liver microsomes were used as a source of 11β-HSD2 enzyme; tissue XenoTech Lot No. 1710160; host or cells: human kidney microsomes, mixed gender (method text says human liver microsomes)
T2 sequence (P80365 1-405): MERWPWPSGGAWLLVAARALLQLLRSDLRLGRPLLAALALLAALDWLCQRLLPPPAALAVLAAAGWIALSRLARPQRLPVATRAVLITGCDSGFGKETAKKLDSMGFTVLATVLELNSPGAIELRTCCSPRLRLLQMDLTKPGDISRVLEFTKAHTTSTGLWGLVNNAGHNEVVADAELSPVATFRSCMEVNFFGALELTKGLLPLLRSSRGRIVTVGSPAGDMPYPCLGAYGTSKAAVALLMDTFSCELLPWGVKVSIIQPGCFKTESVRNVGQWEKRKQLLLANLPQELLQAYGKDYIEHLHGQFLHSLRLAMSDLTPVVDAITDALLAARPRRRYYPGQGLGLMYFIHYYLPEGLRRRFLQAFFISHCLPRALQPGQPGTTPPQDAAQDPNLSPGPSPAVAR
Method: The resulting solution with a final volume of 100 µL was incubated for 2.5 h at 37 °C. […] The level of unreacted cortisol was measured by a commercially available ELISA kit.

BJ cells = assay: MTS metabolic activity assay, BJ cells; type: cell-based; details: Homo sapiens, 72 h, read-out: Cell metabolic activity (MTS), % of untreated control
Procedure, shortened: as §1

[4] = test system: human breast carcinoma (MDA-MB-231); assay: MTS metabolic activity assay, MDA-MB-231 cells; type: cell-based; details: 72 h; for viability at 10 µM / viability at 20 µM / viability at 50 µM / viability at 100 µM / viability at 200 µM / viability at 300 µM / viability at 500 µM: Homo sapiens, read-out: Cell metabolic activity (MTS), % of untreated control; for viability at 10 µM: MDA-MB-231, 10 µM; for viability at 20 µM: MDA-MB-231, 20 µM; for viability at 50 µM: MDA-MB-231, 50 µM; for viability at 100 µM: MDA-MB-231, 100 µM; for viability at 200 µM: MDA-MB-231, 200 µM; for viability at 300 µM: MDA-MB-231, 300 µM; for viability at 500 µM: MDA-MB-231, 500 µM
Procedure, shortened: as §1

T1 sequence (P28845 whole entry): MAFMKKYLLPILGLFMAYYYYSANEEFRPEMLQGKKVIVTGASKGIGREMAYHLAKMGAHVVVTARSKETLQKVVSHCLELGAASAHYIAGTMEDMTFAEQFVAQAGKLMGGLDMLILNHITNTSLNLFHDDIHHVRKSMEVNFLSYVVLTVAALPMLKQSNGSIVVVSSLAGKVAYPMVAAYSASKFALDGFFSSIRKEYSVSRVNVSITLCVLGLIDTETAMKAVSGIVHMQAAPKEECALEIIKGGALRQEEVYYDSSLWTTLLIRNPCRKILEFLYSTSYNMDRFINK

SMILES: O=C1N=C(NC2CCCC2)SC12CCCCC2 [Compound 3h, 2-(cyclopentylamino)-1-thia-3-azaspiro[4.5]dec-2-en-4-one]
- viability at 10 µM [1]: 102%
- viability at 20 µM [1]: 96%
- viability at 50 µM [1]: 105%
- viability at 100 µM [1]: 109%
- viability at 200 µM [1]: 117%
- viability at 300 µM [1]: 127%
- viability at 500 µM [1]: 98.4%
- highest increase in proliferation (cell metabolic activity) ([1]; PANC-1, 72 h, range given for the named substances together): 115 to 144%
- cell viability, decreases to ([2]; Caco-2, higher concentrations, range given for the most effective substances together): 20–65%
- viability at 10 µM [2]: 96.3%
- viability at 20 µM [2]: 94.2%
- viability at 50 µM [2]: 99.9%
- viability at 100 µM [2]: 96.2%
- viability at 200 µM [2]: 95.6%
- viability at 300 µM [2]: 82.6%
- viability at 500 µM [2]: 65.5%
- viability at 10 µM [3]: 96.1%
- viability at 20 µM [3]: 100%
- viability at 50 µM [3]: 102%
- viability at 100 µM [3]: 105%
- viability at 200 µM [3]: 109%
- viability at 300 µM [3]: 106%
- viability at 500 µM [3]: 80.8%
- viability at 10 µM (glioma (U-118 MG)): 111%
- viability at 20 µM (glioma (U-118 MG)): 111%
- viability at 50 µM (glioma (U-118 MG)): 116%
- viability at 100 µM (glioma (U-118 MG)): 116%
- viability at 200 µM (glioma (U-118 MG)): 121%
- viability at 300 µM (glioma (U-118 MG)): 121%
- viability at 500 µM (glioma (U-118 MG)): 99.9%
- highest increase in proliferation (cell metabolic activity) (glioma (U-118 MG); U-118 MG, range given for the named substances together): 115 to 144%
- IC50 (11β-HSD1): 70 ± 5 nM
- % of 11β-HSD1 Inhibition 10 μM (11β-HSD1; 10 µM, 2.5 h, 37 °C): 90.49 ± 1.31%
- inhibition at 10 µM (11β-HSD1; 10 µM, 2.5 h, 37 °C): 90%
- inhibition at 10 µM (11β-HSD2): < 43%
- viability at 10 µM (BJ cells): 108%
- viability at 20 µM (BJ cells): 106%
- viability at 50 µM (BJ cells): 111%
- viability at 100 µM (BJ cells): 118%
- viability at 200 µM (BJ cells): 122%
- viability at 300 µM (BJ cells): 115%
- viability at 500 µM (BJ cells): 79%
- viability at 10 µM [4]: 91.6%
- viability at 20 µM [4]: 92.7%
- viability at 50 µM [4]: 92.1%
- viability at 100 µM [4]: 93.5%
- viability at 200 µM [4]: 77.1%
- viability at 300 µM [4]: 64.6%
- viability at 500 µM [4]: 45.6%
- cell viability, decreases to ([4]; MDA-MB-231, higher concentrations, range given for the most effective substances together): 20–65%

SMILES: CC1(C)SC(NC2CCCC2)=NC1=O [Compound 3e, 2-(cyclopentylamino)-5,5-dimethylthiazol-4(5H)-one]
- viability at 10 µM [1]: 110%
- viability at 20 µM [1]: 101%
- viability at 50 µM [1]: 110%
- viability at 100 µM [1]: 112%
- viability at 200 µM [1]: 120%
- viability at 300 µM [1]: 122%
- viability at 500 µM [1]: 127%
- viability at 10 µM [2]: 99.9%
- viability at 20 µM [2]: 86.5%
- viability at 50 µM [2]: 86.7%
- viability at 100 µM [2]: 83.4%
- viability at 200 µM [2]: 80.2%
- viability at 300 µM [2]: 75.6%
- viability at 500 µM [2]: 64.1%
- viability at 10 µM [3]: 102%
- viability at 20 µM [3]: 100%
- viability at 50 µM [3]: 103%
- viability at 100 µM [3]: 106%
- viability at 200 µM [3]: 106%
- viability at 300 µM [3]: 104%
- viability at 500 µM [3]: 104%
- viability at 10 µM (glioma (U-118 MG)): 110%
- viability at 20 µM (glioma (U-118 MG)): 110%
- viability at 50 µM (glioma (U-118 MG)): 116%
- viability at 100 µM (glioma (U-118 MG)): 111%
- viability at 200 µM (glioma (U-118 MG)): 112%
- viability at 300 µM (glioma (U-118 MG)): 109%
- viability at 500 µM (glioma (U-118 MG)): 106%
- IC50 (11β-HSD1): 4400 ± 150 nM
- inhibition at 10 µM (11β-HSD1; 10 µM, 2.5 h, 37 °C): 53.2 ± 5.22%
- inhibition at 10 µM (11β-HSD2): 36.6 ± 1.5%
- viability at 10 µM (BJ cells): 107%
- viability at 20 µM (BJ cells): 109%
- viability at 50 µM (BJ cells): 112%
- viability at 100 µM (BJ cells): 114%
- viability at 200 µM (BJ cells): 117%
- viability at 300 µM (BJ cells): 119%
- viability at 500 µM (BJ cells): 108%
- viability at 10 µM [4]: 96.3%
- viability at 20 µM [4]: 100%
- viability at 50 µM [4]: 103%
- viability at 100 µM [4]: 95.7%
- viability at 200 µM [4]: 93.7%
- viability at 300 µM [4]: 90.6%
- viability at 500 µM [4]: 85.2%
